# System: mD4-VV surrogate virus
# Assay: microbe, parasite or virus in culture
# Format: cell-based, mD4/vaccinia hybrid virus
# Conditions: for EC50: Hybrid virus, BSC-1, read-out: mD4 EC50
Compound,EC50,% @ 25 uM (mD4)
"CCC(C(=O)Nc1sc(C(=O)NC(C)c2ccncc2)c(C)c1C(=O)OC)c1ccc(F)cc1 (centres unmarked) [Compound 186, methyl 2-(2-(4-fluorophenyl)butanamido)-4-methyl-5-((1-(pyridin-4-yl)ethyl)carbamoyl)thiophene-3-carboxylate]",20 µM,
"CCC(C(=O)Nc1snnc1-c1ccccc1F)c1ccccc1 (centres unmarked) [Compound 153, N-[4-(2-Fluoro-phenyl)-[1,2,3]thiadiazol-5-yl]-2-phenyl-butyramide]",10.2 µM,
"CCC(C(=O)Nc1sc(C(N)=O)c(C)c1C(=O)OC)c1cc(F)cc(F)c1 (centres unmarked) [Compound 195, Methyl 2-(2-(3,5-difluorophenyl)butanamido)-5-carbamoyl-4-methylthiophene-3-carboxylate]",25.8 µM,
"O=C(Nc1snnc1-c1ccc(C(F)(F)F)cc1)N1CCN(c2ccccn2)CC1 [Compound 118, 4-Pyridin-2-yl-piperazine-1-carboxylic acid [4-(4-trifluoromethyl-phenyl)-[1,2,3]thiadiazol-5-yl]-amide]",4 µM,
"Cc1c(C(N)=O)sc(NC(=O)N2CCN(c3ccccn3)CC2)c1C(=O)NCc1ccccc1 [Compound 131, 2-(4-(pyridin-2-yl)piperazine-1-carboxamido)-N3-benzyl-4-methylthiophene-3,5-dicarboxamide]",31.8 µM,
"CCC(C(=O)Nc1sc(C(N)=O)c(C)c1C(=O)OC)c1ccccc1F (centres unmarked) [Compound 189, Methyl 5-carbamoyl-2-(2-(2-fluorophenyl)butanamido)-4-methylthiophene-3-carboxylate]",15.2 µM,
"COC(=O)c1c(NC(=O)N2CCN(c3ccccn3)CC2)sc(C(N)=O)c1C [Compound 116, Methyl 2-(4-(pyridin-2-yl)piperazine-1-carboxamido)-5-carbamoyl-4-methylthiophene-3-carboxylate]",,30% @ 25 uM
"CCC(C(=O)Nc1sc(C(=O)OC(C)(C)C)c(C)c1C(=O)OC)c1ccc2c(c1)OCO2 (centres unmarked) [Compound 192, 2-tert-butyl 4-methyl 5-(2-(benzo[d][1,3]dioxol-5-yl)butanamido)-3-methylthiophene-2,4-dicarboxylate]",> 50 µM,
"CCC(C(=O)Nc1sc(C(=O)NCCCNC(=O)OC(C)(C)C)c(C)c1C(=O)OC)c1ccc(F)cc1 (centres unmarked) [Compound 202, Methyl 5-((3-((tert-butoxycarbonyl)amino)propyl)carbamoyl)-2-(2-(4-fluorophenyl)butanamido)-4-methylthiophene-3-carboxylate]",> 50 µM,
"CCC(C(=O)Nc1sc(C(N)=O)c(C)c1C(=O)OC)c1ccc(C(F)(F)F)cc1 (centres unmarked) [Compound 190, methyl 5-carbamoyl-4-methyl-2-(2-(4-(trifluoromethyl)phenyl)butanamido)thiophene-3-carboxylate]",4.8 µM,
"CCC(C(=O)Nc1sc(C(=O)OC(C)(C)C)c(C)c1C(=O)OC)c1ccc(C(F)(F)F)cc1 (centres unmarked) [Compound 198, 2-tert-butyl 4-methyl 5-(2-(4-(trifluoromethyl)phenyl)butanamido)-3-methylthiophene-2,4-dicarboxylate]",> 50 µM,
"O=C(NCc1ccccc1)c1nnsc1NC(=O)N1CCN(c2ccccc2F)CC1 [Compound 169, 4-(2-Fluoro-phenyl)-piperazine-1-carboxylic acid (4-benzylcarbamoyl-[1,2,3]thiadiazol-5-yl)-amide]",32.7 µM,
"CCC(C(=O)Nc1snnc1-c1ccccc1)c1ccccc1 (centres unmarked) [Compound 155, 2-Phenyl-N-(4-phenyl-[1,2,3]thiadiazol-5-yl)-butyramide]",16.2 µM,
"CCC(C(=O)Nc1sc(C(N)=O)c(C)c1C(=O)OC)c1cccc(F)c1 (centres unmarked) [Compound 98, Methyl 2-(2-(3-fluorophenyl)butanamido)-5-carbamoyl-4-methylthiophene-3-carboxylate]",18 µM,
"CCC(C(=O)Nc1sc(C(=O)N2CCNCC2)c(C)c1C(=O)OC)c1ccc(F)cc1 (centres unmarked) [Compound 201, Methyl 2-[2-(4-fluorophenyl)butanamido]-4-methyl-5-(piperazine-1-carbonyl)thiophene-3-carboxylate]",> 25 µM,
"Cc1ccc(CNC(=O)c2nnsc2NC(=O)N2CCN(c3ccccn3)CC2)cc1 [Compound 124, 4-Pyridin-2-yl-piperazine-1-carboxylic acid [4-(4-methyl-benzylcarbamoyl)-[1,2,3]thiadiazol-5-yl]-amide]",14.5 µM,
"CCC(C(=O)Nc1sc(C(N)=O)c(C)c1C(=O)OC)c1ccccc1OC (centres unmarked) [Compound 95, Methyl 2-(2-(2-methoxyphenyl)butanamido)-5-carbamoyl-4-methylthiophene-3-carboxylate]",21.2 µM,
"CCC(C(=O)Nc1sc(C(=O)OC(C)(C)C)c(C)c1C(=O)OC)c1cc(F)cc(F)c1 (centres unmarked) [Compound 194, 2-tert-butyl 4-methyl 5-(2-(3,5-difluorophenyl)butanamido)-3-methylthiophene-2,4-dicarboxylate]",> 50 µM,
"CCC(C(=O)Nc1snnc1-c1ccc(F)cc1)c1ccccc1 (centres unmarked) [Compound 154, N-[4-(4-Fluoro-phenyl)-[1,2,3]thiadiazol-5-yl]-2-phenyl-butyramide]",32 µM,
"O=C(NCc1ccccc1)c1nnsc1NC(=O)N1CCN(c2ccccc2)CC1 [Compound 123, 4-Phenyl-piperazine-1-carboxylic acid (4-benzylcarbamoyl-[1,2,3]thiadiazol-5-yl)-amide]",,44% @ 25 uM
"COC(=O)c1ccsc1NC(=O)N1CCN(c2ccccn2)CC1 [Compound 114, Methyl 2-(4-(pyridin-2-yl)piperazine-1-carboxamido)thiophene-3-carboxylate]",,32% @ 25 uM

Compound,EC50,% @ 25 uM (mD4)
"CCC(C(=O)Nc1snnc1C(=O)NCc1ccc(Cl)cc1)c1ccccc1 (centres unmarked) [Compound 134, 5-(2-Phenyl-butyrylamino)-[1,2,3]thiadiazole-4-carboxylic acid 4-chloro-benzylamide]",11.5 µM,
"CCC(C(=O)Nc1sc(C(N)=O)c(C)c1C(=O)OC)c1cccc(OC)c1 (centres unmarked) [Compound 96, Methyl 2-(2-(3-methoxyphenyl)butanamido)-5-carbamoyl-4-methylthiophene-3-carboxylate]",,56% @ 25 uM
"O=C(NCc1ccccc1)c1ccsc1NC(=O)N1CCN(c2ccccn2)CC1 [Compound 130, N-(3-(Benzylcarbamoyl)thiophen-2-yl)-4-(pyridin-2-yl)piperazine-1-carboxamide]",32.8 µM,
"CCC(C(=O)Nc1sc(C(N)=O)c(C)c1C(=O)OC)c1ccc(C)cc1 (centres unmarked) [Compound 188, Methyl 5-carbamoyl-4-methyl-2-(2-(p-tolyl)butanamido)thiophene-3-carboxylate]",64.1 µM,
"CCC(C(=O)Nc1sc(C(N)=O)c(C)c1C(=O)OC)c1ccc2c(c1)OCO2 (centres unmarked) [Compound 193, Methyl 2-(2-(benzo[d][1,3]dioxol-5-yl)butanamido)-5-carbamoyl-4-methylthiophene-3-carboxylate]",> 50 µM,
"CCC(C(=O)Nc1sc(C(N)=O)c(C)c1C(=O)OC)c1ccc(Cl)cc1 (centres unmarked) [Compound 191, Methyl 5-carbamoyl-2-(2-(4-chlorophenyl)butanamido)-4-methylthiophene-3-carboxylate]",11.4 µM,
"CCC(C(=O)Nc1snnc1C(=O)NCc1ccccc1)c1ccccc1 (centres unmarked) [Compound 135, 5-(2-Phenyl-butyrylamino)-[1,2,3]thiadiazole-4-carboxylic acid benzylamide]",18.5 µM,
"O=C(CCCc1ccccn1)Nc1snnc1C(=O)NCc1ccc(Cl)cc1 [Compound 175, 5-(4-(Pyridin-2-yl)butanamido)-N-(4-chlorobenzyl)-1,2,3-thiadiazole-4-carboxamide]",15.5 µM,
"CCC(C(=O)Nc1sc(C(N)=O)c(C)c1C(=O)OC)c1ccc(OC)cc1 (centres unmarked) [Compound 97, Methyl 2-(2-(4-methoxyphenyl)butanamido)-5-carbamoyl-4-methylthiophene-3-carboxylate]",,37% @ 25 uM
"CCC(C(=O)Nc1scnc1C(=O)NCc1ccccc1)c1ccccc1 (centres unmarked) [Compound 162, 5-(2-Phenylbutanamido)-N-benzylthiazole-4-carboxamide]",18.1 µM,
"CCOC(=O)c1ncsc1NC(=O)N1CCN(c2ccccn2)CC1 [Compound 127, Ethyl 5-(4-(pyridin-2-yl)piperazine-1-carboxamido)thiazole-4-carboxylate]",29.5 µM,
"CCC(C(=O)Nc1sccc1C(=O)OC)c1ccccc1 (centres unmarked) [Compound 112, Methyl 2-(2-phenylbutanamido)thiophene-3-carboxylate]",,59% @ 25 uM
"CCC(C(=O)Nc1sc(C(=O)NCCCN)c(C)c1C(=O)OC)c1ccc(F)cc1 (centres unmarked) [Compound 203, Methyl 5-(3-aminopropylcarbamoyl)-2-(2-(4-fluorophenyl)butanamido)-4-methylthiophene-3-carboxylate]",20 µM,
"CCC(C(=O)Nc1sc(C(=O)NCCc2cccnc2)c(C)c1C(=O)OC)c1ccc(F)cc1 (centres unmarked) [Compound 187, methyl 2-(2-(4-fluorophenyl)butanamido)-4-methyl-5-((2-(pyridin-3-yl)ethyl)carbamoyl)thiophene-3-carboxylate]",13.8 µM,
"CCC(C(=O)Nc1sc(C(N)=O)c(C)c1C(=O)OC)c1ccc(C#N)cc1 (centres unmarked) [Compound 197, Methyl 2-(2-(4-cyanophenyl)butanamido)-5-carbamoyl-4-methylthiophene-3-carboxylate]",42 µM,
"CCC(C(=O)Nc1sc(C(N)=O)c(C)c1C(=O)NCc1ccc(Cl)cc1)c1ccccc1 (centres unmarked) [Compound 115, 2-(2-Phenylbutanamido)-N3-(4-chlorobenzyl)-4-methylthiophene-3,5-dicarboxamide]",11 µM,
"CCOC(=O)c1nnsc1NC(=O)C(CC)c1ccccc1 (centres unmarked) [Compound 106, 5-(2-Phenyl-butyrylamino)-[1,2,3]thiadiazole-4-carboxylic acid ethyl ester]",,40% @ 25 uM
"O=C(Nc1snnc1C(=O)NCc1ccc(Cl)cc1)Oc1ccccc1 [Compound 132, [4-(4-Chloro-benzylcarbamoyl)-[1,2,3]thiadiazol-5-yl]-carbamic acid phenyl ester]",16.4 µM,
"CCOC(=O)c1ncsc1NC(=O)C(CC)c1ccccc1 (centres unmarked) [Compound 165, Ethyl 5-(2-phenylbutanamido)thiazole-4-carboxylate]",,30.6% @ 25 uM
"CCC(C(=O)NC(=O)c1sc(N)c(C(=O)OC)c1C)c1ccc(F)cc1 (centres unmarked) [Compound 174, Methyl 5-(2-(4-fluorophenyl)butanoylcarbamoyl)-2-amino-4-methylthiophene-3-carboxylate]",20.5 µM,
